Measurements from article PMC6366094, “Suppression of Myeloid Cell Arginase Activity leads to Therapeutic Response in a NSCLC Mouse Model by Activating Anti-Tumor Immunity” (Journal for Immunotherapy of Cancer, 2019).

Columns and labels:
[1] = molecular target: T1, human ARG2 (arginase 2) (Homo sapiens, UniProt P78540); assay: enzymatic arginase inhibition assay (data not shown); format: biochemical
T1 sequence (P78540 23-354): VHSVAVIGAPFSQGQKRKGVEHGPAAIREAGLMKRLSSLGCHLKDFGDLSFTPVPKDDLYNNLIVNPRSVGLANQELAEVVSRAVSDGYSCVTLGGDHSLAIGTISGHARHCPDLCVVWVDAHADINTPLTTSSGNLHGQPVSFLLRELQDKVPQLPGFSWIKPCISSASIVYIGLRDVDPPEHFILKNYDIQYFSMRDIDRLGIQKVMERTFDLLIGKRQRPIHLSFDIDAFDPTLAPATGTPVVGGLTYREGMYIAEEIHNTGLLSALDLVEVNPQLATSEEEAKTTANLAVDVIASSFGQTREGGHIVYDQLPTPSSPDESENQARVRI

[2] = molecular target: T2, human ARG1 (arginase 1) (Homo sapiens, UniProt P05089); assay: as above; format: biochemical
T2 sequence (P05089 1-322): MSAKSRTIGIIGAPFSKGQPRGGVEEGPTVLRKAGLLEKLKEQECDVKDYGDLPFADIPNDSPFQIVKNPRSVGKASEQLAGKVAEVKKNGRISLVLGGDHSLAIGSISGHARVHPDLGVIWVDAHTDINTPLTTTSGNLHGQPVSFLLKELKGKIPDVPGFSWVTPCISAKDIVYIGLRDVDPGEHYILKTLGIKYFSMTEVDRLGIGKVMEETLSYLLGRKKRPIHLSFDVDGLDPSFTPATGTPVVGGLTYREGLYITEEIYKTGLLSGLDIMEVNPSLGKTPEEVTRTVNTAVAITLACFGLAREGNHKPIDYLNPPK

N[C@](CCCCB(O)O)(CCN1CCCCC1)C(=O)O [compound 9, (R)-2-amino-6-borono-2-(2-(piperidin-1-yl)ethyl) hexanoic acid]
IC50 [1]: 2.7 µM
IC50 [2]: 1.1 µM
